Measurements taken from BindingDB's records for PubMed 1848629 (Georgetown University, 1991).
Values joined by “and” are separate entries in the source; they are usually repeats but may differ in a detail not shown here. Equal values may be shown once.

These compounds were tested against Gamma-aminobutyric acid type B receptor subunit 1 (UniProt Q9Z0U4).
Gamma-aminobutyric acid type B receptor subunit 1, sequence (Q9Z0U4 whole entry): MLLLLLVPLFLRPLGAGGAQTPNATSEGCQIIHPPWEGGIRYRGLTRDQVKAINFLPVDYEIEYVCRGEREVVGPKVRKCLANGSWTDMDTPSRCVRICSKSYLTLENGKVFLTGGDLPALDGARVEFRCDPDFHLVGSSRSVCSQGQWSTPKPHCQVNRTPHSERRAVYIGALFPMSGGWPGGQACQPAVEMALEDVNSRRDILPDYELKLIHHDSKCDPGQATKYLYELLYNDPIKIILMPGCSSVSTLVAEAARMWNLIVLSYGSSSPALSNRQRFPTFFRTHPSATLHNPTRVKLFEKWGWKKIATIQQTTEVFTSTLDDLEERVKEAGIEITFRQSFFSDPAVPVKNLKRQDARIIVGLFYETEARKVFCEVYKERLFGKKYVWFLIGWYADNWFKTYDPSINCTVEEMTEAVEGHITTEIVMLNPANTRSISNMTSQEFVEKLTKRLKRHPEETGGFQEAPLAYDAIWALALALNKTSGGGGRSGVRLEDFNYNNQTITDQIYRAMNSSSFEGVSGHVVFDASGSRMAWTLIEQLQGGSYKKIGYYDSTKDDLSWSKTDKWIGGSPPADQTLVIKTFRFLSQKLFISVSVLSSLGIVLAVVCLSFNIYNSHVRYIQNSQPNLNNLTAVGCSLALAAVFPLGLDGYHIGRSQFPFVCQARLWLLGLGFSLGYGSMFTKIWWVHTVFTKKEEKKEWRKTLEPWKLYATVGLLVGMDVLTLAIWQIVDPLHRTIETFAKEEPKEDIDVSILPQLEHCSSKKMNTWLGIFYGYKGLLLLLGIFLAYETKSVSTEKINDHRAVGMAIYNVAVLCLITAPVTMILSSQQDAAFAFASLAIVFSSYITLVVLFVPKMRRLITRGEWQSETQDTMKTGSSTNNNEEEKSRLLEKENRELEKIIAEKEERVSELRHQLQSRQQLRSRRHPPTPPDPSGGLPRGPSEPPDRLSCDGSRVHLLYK

| Structure (SMILES) | Ki |
| --- | --- |
| CN1C(=O)CN=C(c2ccccc2)c2cc(Cl)ccc21 | 19 nM and 18 nM and 22 nM and 20 nM and 26 nM |
| CN1C(=O)CN=C(c2ccc(Cl)cc2)c2cc(Cl)ccc21 [Ro5-4864] | 1000 nM |
| CN1C(=O)CN=C(c2ccccc2F)c2cc([N+](=O)[O-])ccc21 [Flunitrazepam] | 8.8 nM and 10 nM and 6.1 nM and 5 nM and 7.5 nM |
| Cc1nnc2n1-c1ccc(Cl)cc1C(c1ccccc1)=NC2 | 4.5 nM and 5 nM and 6.7 nM and 5.3 nM and 8 nM |
| CC[C@@H](C)N(C)C(=O)c1cc2ccccc2c(-c2ccccc2Cl)n1 [PK 11195] | 1000 nM |

What follows are compounds tested against Gamma-aminobutyric acid (GABA) B receptor 1 (Rattus norvegicus, UniProt Q6MFX8).
Gamma-aminobutyric acid (GABA) B receptor 1, sequence (Q6MFX8 whole entry): as the sequence (Q9Z0U4 whole entry) above

| Structure (SMILES) | Ki |
| --- | --- |
| Cc1nnc2ccc(-c3cccc(C(F)(F)F)c3)nn12 | 15 nM and 12 nM and 100 nM |
| CCOC(=O)c1ncn2c1CN(C)C(=O)c1cc(F)ccc1-2 [ethyl 12-fluoro-8-methyl-9-oxo-2,4,8-triazatricyclo[8.4.0.0^{2,6}]tetradeca-1(14),3,5,10,12-pentaene-5-carboxylate] | 1 nM and 2 nM and 1.9 nM |
